Laboratory results taken from article PMC7557804, “The Anti-Microbial Peptide (Lin-SB056-1)2-K Reduces Pro-Inflammatory Cytokine Release through Interaction with Pseudomonas aeruginosa Lipopolysaccharide” (Antibiotics, 2020).
Entries after “also recorded” stand apart in the source; their conditions may differ.

Key:
THP-1 macrophages = assay: Cytotoxicity (LDH release) towards THP-1 macrophages; assay type: cell-based, Human; conditions: LPS-stimulated THP-1 macrophages, 4 h
Procedure: (§1) Human non-small-cell lung adenocarcinoma A549 cells (ATCC CCL-185; LGC Standards, Milan, Italy) and human monocytic THP-1 cells (ATCC TIB-202; LGC Standards) were cultured in tissue culture flasks in Dulbecco’s modified essential medium (DMEM) (Euroclone, Milan, Italy) and RPMI 1640 medium (Euroclone), respectively. Both media were supplemented with 2 mM L-glutamine (Euroclone) and 10% heat-inactivated fetal bovine serum (FBS; Euroclone). Confluent monolayers were detached from the culture flask with 0.25% trypsin/1 mM EDTA solution (Euroclone), suspended in complete culture medium and seeded into flat-bottom 96-well plates at a final density of 1 × 10^4 cells/well (A549) and 2 × 10^4 cells/well (THP-1). A549 cells were cultured for 24 h at 37 °C, 5% CO2 in order to allow adhesion and formation of semi-confluent monolayers. THP-1 cells were cultured for 3 days (37 °C, 5% CO2) in the presence of 100 nM TPA (Sigma-Aldrich, St. Louis, MO, USA) to induce their differentiation into macrophage-like cells.
(§2) The cytotoxicity of lin-SB056-1 and (lin-SB056-1)2-K towards A549 and THP-1 cells was evaluated to exclude a possible correlation between reduction in cytokine levels and decrease in cell numbers. To this end, culture supernatants of cells stimulated with LPS in the presence of the peptides were employed to quantify the amount of cytoplasmic LDH released by dead cells. Cells incubated in culture medium alone or in the presence of LPS served as an indication of spontaneous cell death (cell viability controls), while cells treated with a commercial lysis buffer (Pierce LDH cytotoxicity assay kit, Thermo Fisher Scientific) were used as cell death control (100% cell lysis). The enzymatic activity of LDH in cell supernatants was measured using the Pierce LDH cytotoxicity assay kit (Thermo Fisher Scientific) following manufacturer’s instructions. The cytotoxic effect was determined as follows: cytotoxicity (%) = [(LDH activity of A/LDH activity of B) × 100], where A represents peptide-treated or untreated cells (both in the presence and absence of LPS), and B corresponds to the cell lysis control.

A549 cells [1] = assay: Cytotoxicity (LDH release) towards A549 cells; assay type: cell-based, Human; conditions: LPS-stimulated A549, 4 h
Procedure: as §1, §2

A549 cells [2] = assay: LPS-induced cytokine production by A549 cells (bead-based multiplex immunoassay); assay type: cell-based, Human; conditions: LPS 800 ng/mL, 4 h, 37 °C, peptide 4.8 to 19.25 μM
Procedure: as §1
The anti-inflammatory potential of lin-SB056-1 and (lin-SB056-1)2-K was assessed by evaluating their ability to reduce LPS-induced production of pro-inflammatory cytokines by A549 cells and THP-1 macrophages. In order to ensure cytokine production, cell monolayers were stimulated with LPS from P. aeruginosa serotype 10 (purified by phenol extraction; Sigma-Aldrich, Milano, Italy) at a final concentration of 10 ng/mL (THP-1) and 800 ng/mL (A549). LPS concentrations used in the experiments were chosen based on preliminary assays aimed at identifying the minimum dose of the molecule able to stimulate cytokine production after 4 h of exposure. In order to assess the inhibitory activity of peptides on cytokine production, cell monolayers were incubated in complete culture medium in the presence of LPS and different concentrations of lin-SB056-1 and (lin-SB056-1)2-K (4.8 to 19.25 μM) for 4 h (37 °C, 5% CO2). Cells incubated in the presence of LPS alone were used as positive (cytokine production) control. Following incubation, cell culture supernatants were collected, filter sterilized (0.22 µm) and employed for the quantification of cytokines and the assessment of cell viability.
Different pro-inflammatory cytokines (i.e., IL-1β, IL-6, IL-8 and TNF-α) were quantified in cell culture supernatants through a bead-based multiplex immunoassay (LEGENDplex multi-analyte flow assay kit; BioLegend, San Diego, CA, USA) following manufacturer’s instructions. Briefly, 25 μL of cytokine standard or cell supernatant were incubated with 25 μL of anti-cytokine conjugated beads into V-bottom 96-well plates for 2 h. Following incubation, the plates were washed and subsequently incubated with the detection antibody (25 μL/well) for 1 h. A volume of 25 μL of streptavidin-phycoerythrin was added to each well, and the plates were incubated for another 30 min in the dark. Following consecutive washing steps, the beads were resuspended in the LEGENDplex wash buffer and the samples were analyzed by flow cytometry (BD Accuri C6 flow cytometer; BD Biosciences, Mountain View, CA, United States). Data were acquired with the BD Accuri C6 software (BD Biosciences) (300 events per analyte) and analyzed with the LEGENDplex software (BioLegend). Minimum detectable concentration (MDC+2STDEV) for the tested cytokines were as follows: IL-1β, 0.65 + 0.47 pg/mL; IL-6, 0.97 + 1.46 pg/mL; IL-8, 1.90 + 0.65 pg/mL; TNF-α, 0.88 + 0.27 pg/mL.

[3] = BODIPY TR cadaverine (BC) fluorescent displacement assay, LPS binding; parameters: species or system P. aeruginosa; conditions: P. aeruginosa serotype 10 LPS 10 µg/mL, BC 10 µM; 50 mM Tris-HCl, pH 7.4; 25 °C; excitation 580 nm, emission 620 nm; mean of three independent experiments, SD not exceeding 5%
Procedure: Measurement of the ability of lin-SB056-1 and its dendrimeric derivative to bind P. aeruginosa serotype 10 LPS (Sigma-Aldrich) in vitro was performed by a fluorescent displacement assay using the BODIPY TR cadaverine (BC) probe (5-(((4-(4,4-difluoro-5-(2-thienyl)-4-bora-3a,4a-diaza-s-indacene-3-yl)phenoxy)acetyl)amino)pentylamine, hydrochloride); Thermo Fisher Scientific), as described elsewhere. BC binds to LPS by recognizing the lipid A portion and the probe fluorescence is quenched. When a peptide able to interact with LPS is added, BC is displaced from the complex and its fluorescence increases. LPS binding assays were carried out in 50 mM Tris-HCl buffer, pH 7.4. Aliquots of the peptides at a final concentration of 0.1 μM were successively added to a cuvette containing the LPS/BC complex (10 µg/mL P. aeruginosa LPS and 10 µM BC). Fluorescence measurements were performed with a Perkin-Elmer LS 55B spectrofluorometer (Perkin-Elmer, Waltham, MA, USA) using a thermostated (25 °C) cuvette apparatus (excitation: 580 nm; emission: 620 nm).

P. aeruginosa = conditions: previous studies; cited from earlier work
From the text: (§3) The global issue of anti-microbial resistance coupled with the lack of new treatments for bacterial infections has stimulated interest in the use of AMPs for therapeutic purposes. Due to their unique mechanism(s) of action and wide spectrum of biological activities, AMPs are emerging as a promising alternative to conventional anti-microbial agents for the management of antibiotic-resistant and biofilm-associated infections. Although mainly intended for topical use due to potential toxicity and reduced stability under physiological conditions, many different peptides with anti-micro ...

mammalian cells = conditions: cited from earlier work
From the text: as §3

[4] = LAL assay, LPS neutralization; assay type: biochemical, Escherichia coli; conditions: 2.4 to 19.25 μM peptide; E. coli 011:B4 LPS 2 EU/mL; 30 min, 37 °C
Procedure: The ability of lin-SB056-1 and (lin-SB056-1)2-K to neutralize the activity of LPS was analyzed using a standardized LAL assay (Pierce LAL chromogenic endotoxin quantitation kit; Thermo Fisher Scientific). Peptides at different concentrations (2.4 to 19.25 μM) were pre-incubated with E. coli 011:B4 LPS (2 Endotoxin Units (EU)/mL; EU = unit of measurement for endotoxin activity) for 30 min (37 °C, shaking) in order to promote the interaction between the two molecules. LPS alone was used as positive control. Following incubation, peptide-treated and untreated samples were mixed with the LAL reagent (1:1 ratio) and incubated for 10 min at 37 °C. Subsequently, 100 μL of the chromogenic substrate were added and incubated with the samples for 6 min. The reaction was terminated by adding 100 μL of acetic acid (25% v/v), and absorbance was measured at 405 nm ([…]) using a microplate reader (Multiscan FC, Life Technologies Italia, Monza, Italy). The amount of peptide-sequestered LPS was determined as follows: LPS neutralization (%) = [100 − (ODpeptide/ODpositive control × 100)].

sepsis in animal models = conditions: by sequestering soluble LPS; cited from earlier work
From the text: While the anti-microbial activities of AMPs are becoming increasingly understood, the mechanisms underlying their anti-inflammatory effect still need to be fully elucidated. Nevertheless, the anti-inflammatory mode of action of many peptides has been attributed to their ability to efficiently bind LPS and/or block LPS recognition by effector cells. […] Analogous LPS-ne ...

[5] = in vitro; cited from earlier work
From the text: While the anti-microbial activities of AMPs are becoming increasingly understood, the mechanisms underlying their anti-inflammatory effect still need to be fully elucidated. Nevertheless, the anti-inflammatory mode of action of many peptides has been attributed to their ability to efficiently bind LPS and/or block LPS recognition by effector cells. […] Analogous LPS-ne ... || It is generally thought that the dendrimeric architecture leads to improved biological activity due to a higher local concentration of the active sequence. Possibly, thanks to its conformational plasticity, the dendrimeric organization might maximize target binding (e.g., LPS) through electrostatic interactions, leading to greater biological effects. Nevertheless, we cannot exclude a role of stability on the ability of dendrimeric peptides to establish solid interactions with LPS under specific experimental conditions. For instance, the stronger LPS-binding affinity of (lin-SB056-1 ...

[6] = up to 19.25 μM (highest tested), 37 °C, 5% CO2, relative to cell lysis control, at least three independent experiments

Row | Substance | cell death (LDH release), with LPS (THP-1 macrophages; [6]) | toxicity (THP-1 macrophages; up to 19.25 μM, LDH release) | cell death (LDH release), with LPS (A549 cells [1]; [6]) | toxicity (A549 cells [1]; up to 19.25 μM, LDH release) | effect on IL-6 release (A549 cells [2]) | effect on IL-8 release (A549 cells [2]; lin-SB056-1 decrease at 19.25 μM (highest tested)) | ED50 (Effective Displacement; peptide concentration displacing half of the BC) [3] [µM] | anti-microbial / anti-biofilm activity (P. aeruginosa) | cytotoxicity (mammalian cells) | LPS neutralization / LAL activity [4] | protection from sepsis (sepsis in animal models) | LPS-induced pro-inflammatory responses [5]
1 | KWKIRVRLSA-NH2 [lin-SB056-1, semi-synthetic peptide lin-SB056-1] | less than 5% | no detectable toxicity | less than 5% | no detectable toxicity | only a decrease in IL-8 levels was recorded | decrease in IL-8 levels | ~1.75 | effective against biofilms; also recorded: promising anti-microbial activity | low cytotoxicity | differently from lin-SB056-1 |  | 
2 | LL-37: well-known human cathelicidin LL-37 (LLGDFFRKSKEKIGKEFKRIVQRIKDFLRNLVPRTES; Antibacterial peptide LL-37; UniProt P49913 134-170, looked up) |  |  |  |  |  |  |  |  |  |  | protect from sepsis | suppress LPS-induced pro-inflammatory responses
